According to patent publication US11066399B2, “Ferroportin inhibitors” (Vifor (International) AG, priority 2015, dated 2021):
pIC50: −log10 of the molar value. Marks after values point to notes of the source that are not given here.

Legend:
ferroportin (Fpn) = biological target: T1, ferroportin (Fpn) (Mus musculus, UniProt Q9JHI9); experiment: Hepcidin Internalization Assay (J774); type: cell-based; details: average (AVE) of multiple measurements; TMR-hepcidin 25 nM, J774 cells
T1 construct: host or cells: J774 mouse macrophage cell line, Fe(III)-NTA induced
T1 sequence (Q9JHI9 1-570): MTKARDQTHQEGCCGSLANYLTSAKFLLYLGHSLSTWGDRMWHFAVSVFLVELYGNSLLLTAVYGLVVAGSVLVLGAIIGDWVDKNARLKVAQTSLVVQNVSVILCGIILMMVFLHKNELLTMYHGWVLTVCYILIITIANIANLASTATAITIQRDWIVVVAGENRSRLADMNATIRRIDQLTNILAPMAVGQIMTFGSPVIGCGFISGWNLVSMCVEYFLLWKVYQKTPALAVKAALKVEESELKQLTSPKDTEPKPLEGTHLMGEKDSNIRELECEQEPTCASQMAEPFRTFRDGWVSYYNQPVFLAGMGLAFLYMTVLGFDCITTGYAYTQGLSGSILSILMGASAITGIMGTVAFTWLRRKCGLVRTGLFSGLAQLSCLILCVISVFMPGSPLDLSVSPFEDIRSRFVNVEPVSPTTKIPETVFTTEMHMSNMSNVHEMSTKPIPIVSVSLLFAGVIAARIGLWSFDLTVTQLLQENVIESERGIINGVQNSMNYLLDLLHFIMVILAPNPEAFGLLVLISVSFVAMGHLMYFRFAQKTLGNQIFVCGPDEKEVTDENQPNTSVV
Source text: This cellular assay allows quantification of the binding of hepcidin to ferroportin (Fpn) through microscopic detection of internalization of a fluorescently labeled hepcidin into J774 cells. […] Binding of hepcidin to Fpn triggers internalization and degradation of both hepcidin and Fpn. However, the TMR (6-carboxytetramethylrhodamine) fluorophore attached to hepcidin remains associated with the cell after degradation of the hepcidin peptide backbone. Therefore, microscopic detection of cell-associated TMR fluorescence is a measure of hepcidin binding to Fpn and internalization of hepcidin and Fpn. If TMR-hepcidin is prevented from binding to Fpn, cellular TMR fluorescence remains low (Dürrenberger et al, 2013). The effect of small molecular weight Fpn inhibitor compounds in this assay was evaluated in vitro as described below.
After overnight incubation, cells were washed 3 times with pre-warmed DMEM w/o phenol red, 30 μl/well of DMEM w/o phenol red was added after the final wash and 10 μl/well of dilution series of test compounds were added in triplicates. […] Cells were incubated in a total volume of 50 μl at 37° C. with 5% CO2 for 2 hours, then Hoechst 33342 dye was added to a final concentration of 0.5 μg/ml to stain nuclei and further incubated for 10 min. at 37° C. with 5% CO2. Cells were washed 3 times with PBS and fixed in 100 μl of 4% paraformaldehyde in PBS for 15 min. at room temperature. After removal of the paraformaldehyde solution, cells were washed 3 times with PBS leaving 100 μl per well and the plates were sealed with foil plate seal. TMR (530-550 nm excitation/575-625 nm emission/400 ms exposure time) and Hoechst 33342 (360-370 nm excitation/420-460 nm emission/10 ms exposure time) fluorescence images were acquired using a ScanR plate imager (Olympus) with a 20× high NA objective. Four pictures were acquired per well and fluorescence channel covering ca. 1500 cells per well. The acquired image data was analysed with the ScanR image analysis software. Image analysis included detection of nuclei (Hoechst 33342 fluorescence), identification of cell-associated regions, application of a virtual channel and thresholding for rolling-ball-type background reduction, followed by application of the Sum(Mean) algorithm to measure the TMR fluorescence associated with cells as a quantitative measure for internalized TMR-hepcidin. IC50 values were calculated with the Sum(Mean) raw data using “log(inhibitor) vs. response” curve fitting of Prism 5 software (GraphPad Software Inc., version 5.02).

b2m−/− mice = experiment: Correction of hyperferremia in beta2-microglobulin deficient mice; type: in vivo, mouse; details: for effect on elevated serum iron: b2m−/− mice, 50 mg/kg p.o. for 3 h
Procedure: Female and male homozygous b2m−/− mice were supplied from Jackson Laboratories (B6.129P2-B2mtm1Unc/J, Stock Number: 002087) at age of 6 to 7 weeks and fed standard diet (Harlan Provimi Kliba 3436) ad libitum. Age and gender matched WT C57BL/6 mice are supplied by Charles River. To study the acute effects of ferroportin (Fpn) inhibitors in iron overload b2m−/− mice were treated with compounds or the corresponding amount of vehicle at a volume of 10 ml/kg body weight. Fpn inhibitor compounds were formulated in 0.5% methylcellulose/water or 20% cremophor EL/water and dosed p.o. in mice at 50 mg/kg body weight. WT controls received only vehicle. Three hours later, mice were pre-terminally anesthetized in isoflurane chambers and blood was collected by retro-orbital bleeding. Mice were sacrificed by cervical dislocation and spleens, livers and duodena were harvested and used for biomarker analysis. All experiments have been performed in compliance with license approved by the responsible veterinarian authorities. Serum was isolated by centrifugation of blood into gel-containing microtainers (BD Biosciences) and serum iron was determined by the MULTIGENT Iron assay (Abbott Diagnostics, Cat. 6K95). Four to nine mice per group were used and one-way ANOVA with Bonferroni's multiple comparison test was applied to analyze the statistical differences between the experimental groups.
Blood was collected 1 (#) or 3 (##) hours after oral administration of the indicated doses of Fpn inhibitors to beta2-microglobulin deficient mice and serum iron concentrations were measured. Relative reduction (%) of serum iron levels are shown, which were calculated by subtracting the average of serum iron values of animals dosed with the Fpn inhibitor from that of vehicle-treated animals. The difference in average serum iron values between vehicle and compound treated groups was then divided by the average of serum iron of the vehicle control group and listed as percentage.

Hbb th3/+ mice = experiment: Improvement of anemia, ineffective erythropoiesis and iron overload in a mouse model of β-thalassemia intermedia; type: in vivo; details: % change to vehicle; for Decrease in serum iron: dosed for 3 h
Procedure: The efficacy of Fpn inhibitors was investigated using a mouse model of transfusion-independent β-thalassemia. Mice with heterozygous deletion of β1 and β2 globin genes (called Hbb th3/+ mice) develop transfusion-independent anemia, ineffective erythropoiesis, splenomegaly and secondary iron overload in spleen, liver and kidneys. […] Hbb th3/+ mice were dosed twice daily with either compound at 20 or 60 mg/kg or with methylcellulose (10 ml/kg, Sigma, Cat. 274429) as a vehicle. Between both doses mice had access to drinking water supplemented with 1 mM ^58Fe(II)-sulfate (Vifor Pharma, Batch No. ROR 3096) and 10 mM ascorbic acid (Sigma, Cat. 795437) for 6 h. […] Water without ^58Fe(II)-Sulfate and ascorbic acid was provided during the remaining 18 h. Dosing of Fpn inhibitors or vehicle followed by exposure to iron-containing water was repeated for 20 to 46 days in individual experiments.
Additional hematologic parameters were measured in terminal blood using automated blood cell analyzer.
The inefficient erythropoiesis of Hbb th3/+ mice causes excessive proliferation of erythroid precursors in spleen, leading to splenomegaly.
Erythroferrone is produced by erythrocyte precursors proliferating massively in spleens of Hbb th3/+ mice as a consequence of extramedullar erythropoiesis.
Increased iron demand due to inefficient erythropoiesis and chronically low hepcidin levels in patients with thalassemia causes organ iron loading and associated morbidities, such as hepatocellular carcinoma and heart failure (Rivella S. Haematologica, 2015). Hbb th3/+ mice absorb excessive amounts of iron as a consequence of inadequately low hepcidin levels relative to the high iron content in liver, spleen and kidney and increased ferroportin expression in duodenum (Gardenghi S., Blood, 2007).
Additionally, reactive oxygen species (ROS) were detected in bone marrow cells using a fluorescent indicator, CM-H2DCFDA (Thermo Fisher Scientific, Cat. C6827).
Table 10. Efficacy of Ferroportin inhibitors in a mouse model of thalassemia intermedia (Hbb th3/+ mice). […] Data are expressed as difference to the vehicle control group for hemoglobin and as % change to the vehicle control group for all other parameter shown

[1] = male b2m−/− mice, Dose 60 mg/kg oral, blood collected 3 (##) hours after dosing
[2] = 20 mg/kg twice daily for 20-46 days
[3] = 60 mg/kg twice daily for 20-46 days

O=C(NCc1ccccn1)c1noc(CCNCCc2nc3ccccc3[nH]2)n1 [Example 278]
pIC50 (ferroportin (Fpn)): 6.32

Cc1nc(CCNCCc2nc3ccccc3[nH]2)sc1C(=O)NCc1ncccc1F [Example 7]
pIC50 (ferroportin (Fpn)): 6.40

O=C(NCc1ncccc1F)c1csc(CCNCc2nc3ccccc3[nH]2)n1 [Example Compound No. 40, 2-{2-[(1H-1,3-benzodiazol-2-ylmethyl)amino]ethyl}-N-[(3-fluoropyridin-2-yl)methyl]-1,3-thiazole-4-carboxamide]
effect on elevated serum iron (b2m−/− mice): corrected the elevated serum iron to the levels observed in WT controls

O=C(NCc1ncccc1F)c1cnc(C2CN(CCc3nc4cc(F)ccc4[nH]3)C2)o1 [Example 5]
pIC50 (ferroportin (Fpn)): 7.20

O=C(NCc1ncccc1F)c1cnc(C2CN(CCc3nc4c(F)cccc4[nH]3)C2)o1 [Example 3]
pIC50 (ferroportin (Fpn)): 6.77

O=C(NCc1ncccc1F)c1csc(CCNCCc2nc3ccccc3[nH]2)n1 [Example Compound No. 94, 2-(2-{[2-(1H-1,3-benzodiazol-2-yl)ethyl]amino}ethyl)-N-[(3-fluoropyridin-2-yl)methyl]-1,3-thiazole-4-carboxamide]
effect on elevated serum iron (b2m−/− mice): corrected the elevated serum iron to the levels observed in WT controls

O=C(NCc1ncccc1F)c1coc(C2CN(CCc3nc4ccccc4[nH]3)C2)n1 [Example 208]
Serum Iron Reduction (%) (b2m−/− mice; female b2m−/− mice, Dose 20 mg/kg oral, blood collected 3 (##) hours after dosing): 9% | Serum Iron Reduction (%) (b2m−/− mice; male b2m−/− mice, Dose 20 mg/kg oral, blood collected 3 (##) hours after dosing): 44% | Serum Iron Reduction (%) (b2m−/− mice; [1]): 67** %

O=C(NCc1ncccc1F)c1csc(CCNCCc2nc3ccccc3[nH]2)n1 [Example 94]
Serum Iron Reduction (%) (b2m−/− mice; female b2m−/− mice, Dose 60 mg/kg oral, blood collected 3 (##) hours after dosing): 47% | Serum Iron Reduction (%) (b2m−/− mice; [1]): 67%

O=C(NCc1ncccc1F)c1coc(CCNCCc2nc3ccccc3[nH]2)n1 [Example 127]
Serum Iron Reduction (%) (b2m−/− mice; female b2m−/− mice, Dose 20 mg/kg oral, sampling time not marked): 47*** % | Serum Iron Reduction (%) (b2m−/− mice; female b2m−/− mice, Dose 60 mg/kg oral, sampling time not marked): 74*** % | Serum Iron Reduction (%) (b2m−/− mice; male b2m−/− mice, Dose 60 mg/kg oral, sampling time not marked): 83** % | Decrease in 58Fe spleen iron content (Hbb th3/+ mice; [2]): 43% | Decrease in RDW (Hbb th3/+ mice; [2]): 19% | Decrease in serum erythropoietin (Hbb th3/+ mice; [2]): 32% | Increase in hematocrit (Hbb th3/+ mice; [2]): 3% | Prevention of liver 58Fe loading (Hbb th3/+ mice; [2]): 39% | Decrease in serum iron (Hbb th3/+ mice; 20 mg/kg): 68% | Decrease in 58Fe spleen iron content (Hbb th3/+ mice; [3]): 68% | Decrease in RDW (Hbb th3/+ mice; [3]): 25% | Decrease in serum erythropoietin (Hbb th3/+ mice; [3]): 33% | Increase in hematocrit (Hbb th3/+ mice; [3]): 20% | Prevention of liver 58Fe loading (Hbb th3/+ mice; [3]): 59% | Decrease in serum iron (Hbb th3/+ mice; 60 mg/kg): 81%

O=C(NCc1ncccc1F)c1cnc(CCNCc2nc3ccccc3[nH]2)o1 [Example 4]
pIC50 (ferroportin (Fpn)): 6.81

O=C(NCc1ncccc1F)c1noc(CCNCCc2nc3ccccc3[nH]2)n1 [Example 279]
pIC50 (ferroportin (Fpn)): 5.70

O=C(NCc1ncccc1F)c1csc(CCN2Cc3nc4ccccc4n3CC2=O)n1 [Example 275]
pIC50 (ferroportin (Fpn)): 4.58

O=C(NCc1ncccc1F)c1cnc(C2CN(Cc3nc4ccccc4[nH]3)C2)o1 [Example 280]
pIC50 (ferroportin (Fpn)): 4.30

O=C(NCc1ncccc1F)c1cnc(CCNCCc2nc3ccccc3[nH]2)s1 [Example 8]
pIC50 (ferroportin (Fpn)): 6.62

O=C(NCc1ncccc1F)c1csc(CCN2CCn3c(nc4ccccc43)C2)n1 [Example 276]
pIC50 (ferroportin (Fpn)): 4.57
